Data: US9409905B2, “Antibacterial compounds and methods for use” (PTC THERAPEUTICS, INC., priority 2011, dated 2016)
Values after ≈ are worked out from the molar mass of the structure shown.

Legend:
K. pneumoniae MXX1232 = experiment: Antibacterial activity, MIC, resistant strain (Table 4); assay type: cell-based; conditions: Klebsiella pneumoniae, MXX1232; resistant K. pneumoniae MMX1232, multi-drug resistant clinical isolate; read-out: MIC, MMX1232
In short: (§1)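 Broth microdilution; MIC (μg/mL) = lowest concentration with no macroscopically visible growth. Resistant strains: multi-drug resistant clinical isolates.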

A. baumannii MXX2240 = experiment: as above; assay type: cell-based; conditions: Acinetobacter baumannii, MXX2240; resistant A. baumannii MMX2240, multi-drug resistant clinical isolate; read-out: MIC, MMX2240
In short: as §1

E. coli 25922 = experiment: Antibacterial activity, microbroth dilution MIC (Table 1); assay type: cell-based, Escherichia coli; conditions: Escherichia coli; microbroth dilution; control Gram-negative E. coli 25922 strain; read-out: MIC, 25922
In short: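 In a microbroth dilution test, the minimum inhibitory concentration was defined as the lowest compound level preventing growth seen by eye, and was given in μg/mL.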

[1] = system: Klebsiella pneumoniae (K. pneumoniae) 35657; experiment: Antibacterial activity, MIC (Table 4); assay type: cell-based; conditions: K. pneumoniae 35657, read-out: MIC, 35657
In short: as §1

[2] = system: Acinetobacter baumannii (A. baumannii) BAA747; experiment: Antibacterial activity, MIC (Table 4); assay type: cell-based; conditions: A. baumannii BAA747, read-out: MIC, BAA747
In short: as §1

[3] = system: Pseudomonas aeruginosa (P. aeruginosa) 27853; experiment: Antibacterial activity, MIC (Table 5); assay type: cell-based; conditions: P. aeruginosa 27853, read-out: MIC, 27853
In short: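 Using a microbroth dilution format, the minimum inhibitory concentration was recorded as the lowest tested concentration that stopped visible bacterial growth, expressed in μg/mL.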

[4] = system: Escherichia coli (E. coli) BAS849; experiment: Antibacterial activity, microbroth dilution MIC (Table 1); assay type: cell-based; conditions: microbroth dilution, super sensitive Gram-negative E. coli BAS849, read-out: MIC, BAS849
In short: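 Using broth microdilution, MIC endpoints (μg/mL) mark where visible growth no longer appears; the panel spans sensitive and control Gram-negative strains plus a Gram-positive strain.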

[5] = system: Staphylococcus aureus (S. aureus) 29213; experiment: as above; assay type: cell-based; conditions: microbroth dilution, Gram-positive S. aureus 29213, read-out: MIC, 29213
In short: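 Each strain is exposed to test compound in a microbroth dilution series; visible growth is scored macroscopically, and the lowest growth-free concentration is recorded as MIC in μg/mL.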

E. coli LZ3111 = experiment: Antibacterial activity, MIC, quinolone resistant strain (Table 2); assay type: cell-based; conditions: Escherichia coli, LZ3111, read-out: MIC LZ3111
In short: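 Growth inhibition assessed by serial drug dilution in broth; endpoint was absence of macroscopically visible growth, reported as MIC, μg/mL.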

| SMILES | MIC (K. pneumoniae MXX1232) [µg/mL] | MIC (A. baumannii MXX2240) [µg/mL] | MIC (E. coli 25922) [µg/mL] | MIC [1] [µg/mL] | MIC [2] [µg/mL] | MIC [3] [µg/mL] | MIC [4] [µg/mL] | MIC [5] [µg/mL] | MIC (E. coli LZ3111) [µg/mL] |
| --- | --- | --- | --- | --- | --- | --- | --- | --- | --- |
| CCCNCc1cc2cc(-c3[nH]c(=O)c(C(=O)O)c(O)c3C)ccc2n1C [Cpd 352, 4-hydroxy-5-methyl-6-(1-methyl-2-((propylamino)methyl)-1H-indol-5-yl)-2-oxo-1,2-dihydropyridine-3-carboxylic acid] | 12.5 to 150 (≈ 33.8 to 406 µM) | 1 to 3.5 (≈ 2.71 to 9.47 µM) | 3.5 to 12.5 (≈ 9.47 to 33.8 µM) | 1 to 3.5 (≈ 2.71 to 9.47 µM) | 3.5 to 12.5 (≈ 9.47 to 33.8 µM) | 12.5 to 150 (≈ 33.8 to 406 µM) | < 1 | 12.5 to 150 (≈ 33.8 to 406 µM) | < 1 |
| Cc1c(-c2ccc3c(c2)cc(CNCC(C)C)n3C)[nH]c(=O)c(C(=O)O)c1O [Cpd 353, 4-hydroxy-6-(2-((isobutylamino)methyl)-1-methyl-1H-indol-5-yl)-5-methyl-2-oxo-1,2-dihydropyridine-3-carboxylic acid] | 12.5 to 150 (≈ 32.6 to 391 µM) | < 1 | 3.5 to 12.5 (≈ 9.13 to 32.6 µM) | 3.5 to 12.5 (≈ 9.13 to 32.6 µM) | 3.5 to 12.5 (≈ 9.13 to 32.6 µM) | 12.5 to 150 (≈ 32.6 to 391 µM) | < 1 | 12.5 to 150 (≈ 32.6 to 391 µM) | 1 to 3.5 (≈ 2.61 to 9.13 µM) |
| Cc1c(-c2ccc3c(c2)cc(CNC2CC2)n3C)[nH]c(=O)c(C(=O)O)c1O [Cpd 355, 6-(2-((cyclopropylamino)methyl)-1-methyl-1H-indol-5-yl)-4-hydroxy-5-methyl-2-oxo-1,2-dihydropyridine-3-carboxylic acid] | 12.5 to 150 (≈ 34 to 408 µM) | < 1 | 3.5 to 12.5 (≈ 9.53 to 34 µM) | 3.5 to 12.5 (≈ 9.53 to 34 µM) | 3.5 to 12.5 (≈ 9.53 to 34 µM) | 12.5 to 150 (≈ 34 to 408 µM) | < 1 | 12.5 to 150 (≈ 34 to 408 µM) | < 1 |
| Cc1c(-c2ccc3c(c2)cc(CNC2(C)CC2)n3C)[nH]c(=O)c(C(=O)O)c1O [Cpd 356, 4-hydroxy-5-methyl-6-(1-methyl-2-((1-methylcyclopropylamino)methyl)-1H-indol-5-yl)-2-oxo-1,2-dihydropyridine-3-carboxylic acid] | 12.5 to 150 (≈ 32.8 to 393 µM) | < 1 | 3.5 to 12.5 (≈ 9.18 to 32.8 µM) | 3.5 to 12.5 (≈ 9.18 to 32.8 µM) | < 1 | 12.5 to 150 (≈ 32.8 to 393 µM) | < 1 | 3.5 to 12.5 (≈ 9.18 to 32.8 µM) | < 1 |
| CCN(CC)Cc1cc2cc(-c3[nH]c(=O)c(C(=O)O)c(O)c3C)ccc2n1C [Cpd 357, 6-(2-((diethylamino)methyl)-1-methyl-1H-indol-5-yl)-4-hydroxy-5-methyl-2-oxo-1,2-dihydropyridine-3-carboxylic acid] | 12.5 to 150 (≈ 32.6 to 391 µM) | 3.5 to 12.5 (≈ 9.13 to 32.6 µM) | 3.5 to 12.5 (≈ 9.13 to 32.6 µM) | 3.5 to 12.5 (≈ 9.13 to 32.6 µM) | 3.5 to 12.5 (≈ 9.13 to 32.6 µM) | 12.5 to 150 (≈ 32.6 to 391 µM) | < 1 | 12.5 to 150 (≈ 32.6 to 391 µM) | 1 to 3.5 (≈ 2.61 to 9.13 µM) |
| Cc1c(-c2ccc3c(c2)cc(CN)n3C)[nH]c(=O)c(C(=O)O)c1O [Cpd 358, 6-(2-(aminomethyl)-1-methyl-1H-indol-5-yl)-4-hydroxy-5-methyl-2-oxo-1,2-dihydropyridine-3-carboxylic acid] | 12.5 to 150 (≈ 38.2 to 458 µM) | 3.5 to 12.5 (≈ 10.7 to 38.2 µM) | 3.5 to 12.5 (≈ 10.7 to 38.2 µM) | 1 to 3.5 (≈ 3.05 to 10.7 µM) | 12.5 to 150 (≈ 38.2 to 458 µM) | 12.5 to 150 (≈ 38.2 to 458 µM) | 1 to 3.5 (≈ 3.05 to 10.7 µM) | 12.5 to 150 (≈ 38.2 to 458 µM) | 1 to 3.5 (≈ 3.05 to 10.7 µM) |
| CCc1c(-c2ccc3c(c2)c(F)c(CNC)n3C)[nH]c(=O)c(C(=O)O)c1O [Cpd 368, 5-ethyl-6-(3-fluoro-1-methyl-2-((methylamino)methyl)-1H-indol-5-yl)-4-hydroxy-2-oxo-1,2-dihydropyridine-3-carboxylic acid] | 12.5 to 150 (≈ 33.5 to 402 µM) | 3.5 to 12.5 (≈ 9.37 to 33.5 µM) | 1 to 3.5 (≈ 2.68 to 9.37 µM) | 1 to 3.5 (≈ 2.68 to 9.37 µM) | 1 to 3.5 (≈ 2.68 to 9.37 µM) | 12.5 to 150 (≈ 33.5 to 402 µM) | < 1 | 12.5 to 150 (≈ 33.5 to 402 µM) | 3.5 to 12.5 (≈ 9.37 to 33.5 µM) |
| CCNCc1c(F)c2cc(-c3[nH]c(=O)c(C(=O)O)c(O)c3CC)ccc2n1C [Cpd 369, 5-ethyl-6-(2-((ethylamino)methyl)-3-fluoro-1-methyl-1H-indol-5-yl)-4-hydroxy-2-oxo-1,2-dihydropyridine-3-carboxylic acid] | 12.5 to 150 (≈ 32.3 to 387 µM) | 3.5 to 12.5 (≈ 9.03 to 32.3 µM) | 1 to 3.5 (≈ 2.58 to 9.03 µM) | < 1 | 1 to 3.5 (≈ 2.58 to 9.03 µM) | 12.5 to 150 (≈ 32.3 to 387 µM) | < 1 | 12.5 to 150 (≈ 32.3 to 387 µM) | 3.5 to 12.5 (≈ 9.03 to 32.3 µM) |
| CCc1c(-c2ccc3c(c2)c(F)c(CNC(C)C)n3C)[nH]c(=O)c(C(=O)O)c1O [Cpd 370, 5-ethyl-6-(3-fluoro-2-((isopropylamino)methyl)-1-methyl-1H-indol-5-yl)-4-hydroxy-2-oxo-1,2-dihydropyridine-3-carboxylic acid] | 12.5 to 150 (≈ 31.1 to 374 µM) | 3.5 to 12.5 (≈ 8.72 to 31.1 µM) | < 1 | 3.5 to 12.5 (≈ 8.72 to 31.1 µM) | 1 to 3.5 (≈ 2.49 to 8.72 µM) | 12.5 to 150 (≈ 31.1 to 374 µM) | < 1 | 3.5 to 12.5 (≈ 8.72 to 31.1 µM) | 3.5 to 12.5 (≈ 8.72 to 31.1 µM) |
| CCc1c(-c2ccc3c(c2)c(F)c(CNC(C)(C)C)n3C)[nH]c(=O)c(C(=O)O)c1O [Cpd 371, 6-(2-((tert-butylamino)methyl)-3-fluoro-1-methyl-1H-indol-5-yl)-5-ethyl-4-hydroxy-2-oxo-1,2-dihydropyridine-3-carboxylic acid] | 12.5 to 150 (≈ 30.1 to 361 µM) | 3.5 to 12.5 (≈ 8.42 to 30.1 µM) | 1 to 3.5 (≈ 2.41 to 8.42 µM) | 1 to 3.5 (≈ 2.41 to 8.42 µM) | 3.5 to 12.5 (≈ 8.42 to 30.1 µM) | 12.5 to 150 (≈ 30.1 to 361 µM) | < 1 | 12.5 to 150 (≈ 30.1 to 361 µM) | 12.5 to 150 (≈ 30.1 to 361 µM) |
| CCc1cc(C(=O)O)c(=O)[nH]c1-c1ccc2c(ccn2C)c1OCc1ccccc1 [Cpd 372, 6-(4-(benzyloxy)-1-methyl-1H-indol-5-yl)-5-ethyl-2-oxo-1,2-dihydropyridine-3-carboxylic acid] | 12.5 to 150 (≈ 31.1 to 373 µM) | 12.5 to 150 (≈ 31.1 to 373 µM) | 12.5 to 150 (≈ 31.1 to 373 µM) | 12.5 to 150 (≈ 31.1 to 373 µM) | 12.5 to 150 (≈ 31.1 to 373 µM) | 12.5 to 150 (≈ 31.1 to 373 µM) | 12.5 to 150 (≈ 31.1 to 373 µM) | 12.5 to 150 (≈ 31.1 to 373 µM) | 12.5 to 150 (≈ 31.1 to 373 µM) |
| CCc1c(-c2ccc3c(ccn3C)c2OCc2ccccc2)[nH]c(=O)c(C(=O)O)c1O [Cpd 373, 6-(4-(benzyloxy)-1-methyl-1H-indol-5-yl)-5-ethyl-4-hydroxy-2-oxo-1,2-dihydropyridine-3-carboxylic acid] | 12.5 to 150 (≈ 29.9 to 358 µM) | 12.5 to 150 (≈ 29.9 to 358 µM) | 12.5 to 150 (≈ 29.9 to 358 µM) | 12.5 to 150 (≈ 29.9 to 358 µM) | 12.5 to 150 (≈ 29.9 to 358 µM) | 12.5 to 150 (≈ 29.9 to 358 µM) | 3.5 to 12.5 (≈ 8.36 to 29.9 µM) | 1 to 3.5 (≈ 2.39 to 8.36 µM) | 12.5 to 150 (≈ 29.9 to 358 µM) |
